Results from patent publication US20050214336A1, “Parasite control in animals” (priority 2002, published 2005).

System: Musca domestica first instars
Test: Development of Musca domestica larvae on cattle dung following oral treatment of the animal (feed-through test)
Type: in vivo
Details: cattle 300 kg, 3 g active compound in capsule on three consecutive days, dung samples
From the text: Test for the development of Musca domestica larvae on cattle dung following oral treatment of the animal with active-compound-comprising formulation (feed-through test) Cattle 300 kg in weight are fed on three consecutive days with in each case 3 g of active compound in a capsule formulation. Dung samples of treated animals are populated with Musca domestica first instars, and the development into adult flies was monitored in comparison with the development of dung samples of an untreated control. Those substances which reliably prevent the development of adults over a period of four weeks are assessed as active.

With CCC(C)(C)C(=O)OC1=C(c2ccc(Cl)cc2Cl)C(=O)OC12CCCCC2 [compound A, 2,2-dimethyl-, 3-(2,4-dichlorophenyl)-2-oxo-1-oxaspiro[4,5]dec-3-en-4-yl-butanoate] the “long-term activity (prevention of development into adult flies)” value (after day 3, long-term (period of four weeks)) was 100% and the “activity (prevention of development into adult flies)” value (up to day 3 after the treatment) was 50%.
